Data as given in ChEMBL document CHEMBL1909046, “DrugMatrix in vitro pharmacology data”.

Assays:
Cathepsin G = target: T1, Cathepsin G (Homo sapiens, UniProt P08311); format: tissue-based; conditions: neutrophil;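 also: inhibition of Cathepsin G enzyme activity, tested on an AMC-conjugated peptide substrate; in other assays of this panel Not Active means under 50% inhibition at 10 µM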
T1 sequence (P08311 whole entry): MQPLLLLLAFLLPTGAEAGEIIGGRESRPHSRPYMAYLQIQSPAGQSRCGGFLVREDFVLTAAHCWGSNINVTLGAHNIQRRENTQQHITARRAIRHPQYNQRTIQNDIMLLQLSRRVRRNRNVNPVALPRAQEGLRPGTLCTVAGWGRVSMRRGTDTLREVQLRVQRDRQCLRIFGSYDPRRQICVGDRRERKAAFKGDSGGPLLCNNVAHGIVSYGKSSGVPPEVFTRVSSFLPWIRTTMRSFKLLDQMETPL

Melanocortin receptor 3 = Melanocortin receptor 3 (Homo sapiens, UniProt P41968); format: cell membranes, Membrane; conditions: hek293; also: in other assays of this panel Not Active means under 50% inhibition at 10 µM
Histamine H2 receptor = Histamine H2 receptor (Homo sapiens, UniProt P25021); format: cell membranes, CHO-K1, Membrane; conditions: cho-k1; also: in other assays of this panel Not Active means under 50% inhibition at 10 µM
[1] = DRUGMATRIX: GABAA, Muscimol, Central radioligand binding (ligand: [3H] Muscimol); format: cell membranes, Rattus norvegicus, Wistar, Brain, Membrane; conditions: Not Active = under 50% inhibition at 10 µM
[2] = target: Sodium-dependent noradrenaline transporter (Homo sapiens, UniProt P23975); test: DRUGMATRIX: Norepinephrine Transporter radioligand binding (ligand: [125I] RTI-55); format: cell membranes, MDCK, Membrane; conditions: Not Active = under 50% inhibition at 10 µM; for Ki: read-out: Ki
Substance-K receptor = target: T2, Substance-K receptor (Homo sapiens, UniProt P21452); format: cell membranes, CHO, Membrane; conditions: cho; also: in other assays of this panel Not Active means under 50% inhibition at 10 µM
T2 sequence (P21452 whole entry): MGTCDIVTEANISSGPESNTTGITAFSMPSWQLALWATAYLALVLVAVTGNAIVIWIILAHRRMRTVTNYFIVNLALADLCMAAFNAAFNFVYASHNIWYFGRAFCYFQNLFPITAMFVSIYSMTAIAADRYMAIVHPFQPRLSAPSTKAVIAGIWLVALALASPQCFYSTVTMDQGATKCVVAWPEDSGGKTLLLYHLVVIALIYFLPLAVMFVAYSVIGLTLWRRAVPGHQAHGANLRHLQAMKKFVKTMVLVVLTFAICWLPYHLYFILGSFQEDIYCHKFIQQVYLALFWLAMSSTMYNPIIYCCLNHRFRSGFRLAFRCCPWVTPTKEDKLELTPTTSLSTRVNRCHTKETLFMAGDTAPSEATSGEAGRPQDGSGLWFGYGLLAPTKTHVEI

[3] = target: T3, 5-hydroxytryptamine receptor 2C (Homo sapiens, UniProt P28335); test: DRUGMATRIX: Serotonin (5-Hydroxytryptamine) 5-HT2C radioligand binding (ligand: [3H] Mesulergine); format: cell membranes, CHO-K1, Membrane; conditions: cho-k1; Not Active = under 50% inhibition at 10 µM
T3 sequence (P28335 whole entry): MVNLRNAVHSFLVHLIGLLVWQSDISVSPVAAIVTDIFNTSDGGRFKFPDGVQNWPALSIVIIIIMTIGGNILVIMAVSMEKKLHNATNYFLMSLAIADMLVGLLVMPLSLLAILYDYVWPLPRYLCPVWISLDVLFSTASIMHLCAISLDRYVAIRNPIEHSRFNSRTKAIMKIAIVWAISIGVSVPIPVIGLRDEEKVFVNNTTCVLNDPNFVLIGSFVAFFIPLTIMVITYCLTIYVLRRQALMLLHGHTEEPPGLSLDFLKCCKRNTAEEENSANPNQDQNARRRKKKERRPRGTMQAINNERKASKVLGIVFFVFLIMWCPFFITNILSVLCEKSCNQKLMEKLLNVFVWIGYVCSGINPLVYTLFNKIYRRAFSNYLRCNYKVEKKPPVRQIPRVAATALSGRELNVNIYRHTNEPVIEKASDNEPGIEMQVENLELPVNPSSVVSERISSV

Sequence of Melanocortin receptor 3 (P41968 whole entry): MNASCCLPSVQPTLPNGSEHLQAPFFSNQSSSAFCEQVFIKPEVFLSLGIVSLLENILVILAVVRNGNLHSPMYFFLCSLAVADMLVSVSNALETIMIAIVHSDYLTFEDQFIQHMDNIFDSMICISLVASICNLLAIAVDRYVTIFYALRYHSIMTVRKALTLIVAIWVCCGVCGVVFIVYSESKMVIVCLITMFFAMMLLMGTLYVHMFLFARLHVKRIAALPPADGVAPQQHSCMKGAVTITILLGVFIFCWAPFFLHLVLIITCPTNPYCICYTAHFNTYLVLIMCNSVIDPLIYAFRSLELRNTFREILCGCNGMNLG
Sequence of Histamine H2 receptor (P25021 whole entry): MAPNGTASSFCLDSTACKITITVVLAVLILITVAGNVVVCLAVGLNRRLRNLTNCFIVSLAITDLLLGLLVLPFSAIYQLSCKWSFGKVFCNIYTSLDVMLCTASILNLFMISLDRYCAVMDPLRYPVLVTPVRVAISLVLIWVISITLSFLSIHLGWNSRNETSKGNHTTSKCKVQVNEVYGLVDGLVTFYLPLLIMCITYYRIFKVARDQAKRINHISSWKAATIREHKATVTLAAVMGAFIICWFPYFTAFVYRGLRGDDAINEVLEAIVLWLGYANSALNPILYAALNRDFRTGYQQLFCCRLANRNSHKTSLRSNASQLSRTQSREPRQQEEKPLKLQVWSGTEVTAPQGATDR
Sequence of Sodium-dependent noradrenaline transporter (P23975 whole entry): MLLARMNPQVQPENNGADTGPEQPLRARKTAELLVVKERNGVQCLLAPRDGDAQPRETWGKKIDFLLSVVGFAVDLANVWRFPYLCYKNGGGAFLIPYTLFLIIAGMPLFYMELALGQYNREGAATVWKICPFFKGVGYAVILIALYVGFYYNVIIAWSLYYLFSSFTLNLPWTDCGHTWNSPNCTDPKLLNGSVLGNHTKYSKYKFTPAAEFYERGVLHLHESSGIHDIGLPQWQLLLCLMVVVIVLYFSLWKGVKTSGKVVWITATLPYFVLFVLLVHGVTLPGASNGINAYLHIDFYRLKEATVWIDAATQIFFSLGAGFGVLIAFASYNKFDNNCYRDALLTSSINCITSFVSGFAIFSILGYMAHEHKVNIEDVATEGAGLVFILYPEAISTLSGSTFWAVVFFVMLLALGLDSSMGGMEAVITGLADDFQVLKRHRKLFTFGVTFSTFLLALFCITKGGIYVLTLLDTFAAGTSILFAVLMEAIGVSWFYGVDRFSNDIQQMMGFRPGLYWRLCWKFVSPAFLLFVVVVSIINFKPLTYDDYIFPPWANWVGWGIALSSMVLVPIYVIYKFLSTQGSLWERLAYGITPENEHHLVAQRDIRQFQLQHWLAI

Row | SMILES | IC50 (Cathepsin G) | IC50 (Melanocortin receptor 3) | IC50 (Histamine H2 receptor) | IC50 [1] | Ki [1] | IC50 ([2]; mdck) | IC50 (Substance-K receptor) | IC50 [3] | IC50 ([2]; read-out: IC50) | Ki [2]
1 | CC[C@H]1OC(=O)[C@H](C)[C@@H](O[C@H]2C[C@@](C)(OC)[C@@H](O)[C@H](C)O2)[C@H](C)[C@@H](O[C@@H]2O[C@H](C)C[C@H](N(C)C)[C@H]2O)[C@](C)(O)C[C@@H](C)CN(C)[C@H](C)[C@@H](O)[C@]1(C)O [AZITHROMYCIN] | Not Active | Not Active | Not Active | Not Active | Not Active | Not Active | Not Active | Not Active |  | 
2 | COc1ccc2cc(CCC(C)=O)ccc2c1 [NABUMETONE] | Not Active | Not Active | Not Active | Not Active | Not Active |  | Not Active | Not Active | 1870 nM | 1850 nM
3 | CCCCC1C(=O)N(c2ccccc2)N(c2ccccc2)C1=O [PHENYLBUTAZONE] | Not Active | Not Active | Not Active | Not Active | Not Active | Not Active | Not Active | Not Active |  | 
4 | NC(=O)N1c2ccccc2C=Cc2ccccc21 [CARBAMAZEPINE] | Not Active | Not Active | Not Active | Not Active | Not Active | Not Active | Not Active | Not Active |  | 
5 | COc1ccc(Cc2nccc3cc(OC)c(OC)cc23)cc1OC [PAPAVERINE] | Not Active | Not Active | Not Active | Not Active | Not Active | Not Active | Not Active | Not Active |  | 
6 | CNC(=C[N+](=O)[O-])NCCSCc1csc(CN(C)C)n1 [NIZATIDINE] | Not Active | Not Active | Not Active | Not Active | Not Active | Not Active | Not Active | Not Active |  | 
7 | COc1ccccc1OCC(O)CO (centres undefined) [GUAIFENESIN] | Not Active | Not Active | Not Active | Not Active | Not Active | Not Active | Not Active | Not Active |  | 
8 | O=C(c1ccccc1Cl)N1CCC(Cc2ccccc2)CC1 | Not Active | Not Active | Not Active | Not Active | Not Active | Not Active | Not Active | Not Active |  | 
9 | Cc1cccc(Nc2cc(Cl)nc(SCC(=O)O)n2)c1C [PIRINIXIC ACID] | Not Active | Not Active | Not Active | Not Active | Not Active | Not Active | Not Active | Not Active |  | 
10 | CC(CCc1ccc(O)cc1)NCCc1ccc(O)c(O)c1 (centres undefined) [DOBUTAMINE] | Not Active | Not Active | Not Active | Not Active | Not Active |  | Not Active | Not Active | 383 nM | 380 nM
11 | CC(C)(Sc1cc(C(C)(C)C)c(O)c(C(C)(C)C)c1)Sc1cc(C(C)(C)C)c(O)c(C(C)(C)C)c1 [PROBUCOL] | Not Active | Not Active | Not Active | Not Active | Not Active | Not Active | Not Active | Not Active |  | 
12 | C/C=C\c1ccc(O)c(OC)c1 [ISOEUGENOL] | Not Active | Not Active | Not Active | Not Active | Not Active | Not Active | Not Active | Not Active |  | 
13 | [N-]=[N+]=CC(=O)OC[C@H](N)C(=O)O [AZASERINE] | Not Active | Not Active | Not Active | Not Active | Not Active | Not Active | Not Active | Not Active |  | 
14 | CCOC(=O)C1=C(C)NC(C)=C(C(=O)OC)C1c1cccc(Cl)c1Cl (centres undefined) [FELODIPINE] | Not Active | Not Active | Not Active | Not Active | Not Active | Not Active | Not Active | Not Active |  | 
